The values below come from patent US8323956B2, “Distal tip of biosensor transducer comprising enzyme for deamination” (Colorado State University Research Foundation, priority 2001, dated 2012).

The target in experiment [1] is T1, LinB haloalkane dehalogenase (Sphingobium indicum, UniProt D4Z2G1).
T1 sequence (D4Z2G1 1-296): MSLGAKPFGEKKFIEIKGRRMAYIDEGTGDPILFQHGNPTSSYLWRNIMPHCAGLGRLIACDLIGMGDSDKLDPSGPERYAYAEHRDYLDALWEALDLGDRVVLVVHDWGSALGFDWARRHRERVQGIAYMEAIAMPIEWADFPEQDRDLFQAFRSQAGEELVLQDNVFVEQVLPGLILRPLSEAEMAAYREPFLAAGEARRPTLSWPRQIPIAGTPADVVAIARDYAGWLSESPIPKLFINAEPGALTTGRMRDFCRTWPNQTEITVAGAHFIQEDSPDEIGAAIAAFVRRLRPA
In words: LinB biosensor sensitivity for halogenated hydrocarbons. The text has this: The haloalkane dehalogenase LinB was used to develop biosensors for several halogenated hydrocarbons.

In a further experiment the target is T2, E. coli pAQN (linB) (Sphingobium indicum, UniProt D4Z2G1).
T2 construct: expressed in transfected cells; host or cells: E. coli carrying plasmid pAQN
In words: Biosensor response to 1,2-dibromoethane measured repeatedly over 50 days. The experiment is classed as cell-based. Particulars: 5 ppb of 1,2-dibromoethane, in more than 50 days. The procedure:
FIG. 17 depicts a biosensor response to 5 μg/L 1,2-dibromoethane using E. coli pAQN (linB) as the biocomponent, measured repeatedly over 50 days, according to an embodiment.
The release of a proton from the dehalogenation reaction is detected as a pH change at the end of the optical fiber, and thus as a change in fluorescence intensity (FIG. 14). Fiber optic biosensors for 1,2-dichloroethane (DCA), ethylene dibromide (EDB), atrazine, 1-chlorohexane and Lindane (γ-hexachlorocyclohexane) have been developed (Campbell, 1998; Das, N., Development and Characterization of a Biosensor for Atrazine in Groundwater, Chemical Engineering. 2000, Colorado State University: Fort Collins). These biosensors have linear response ranges over several orders of magnitude in concentration, and detection in the ppt (ng/L) range has been achieved (FIG. 15). […] This fact, and the stability of the enzymes, allows the biosensors to retain activity for many weeks. In one test (FIG. 16), the biosensor response to 5 ppb of 1,2-dibromoethane declined by only 20% in more than 50 days. Sensitive measurement is still possible even at the end of the test; only a recalibration is required.

The target in experiment [2] is T1, LinB haloalkane dehalogenase. Conditions: reported by Damborsky et al. 2001; cited from earlier work.
For a further experiment, the target named is T3, melamine deaminase TriA (Paracidovorax citrulli, UniProt Q9EYU0).
T3 construct: expressed in transfected cells; host or cells: Escherichia coli DH5α pJS3
In words: TriA (melamine deaminase) biosensor response, cells in calcium alginate on pH-sensitive optical fiber. Format: cell-based, Escherchia coli DH5α pJS3. The text has this:
Cells of Escherchia coli DH5α pJS3 (Seffernick et al., J. Bact. 183 (8), 2405-2410, 2001) were immobilized in calcium alginate on the tip of an optical fiber coated with a PVA-fluoresceinamine conjugate, a pH-sensitive fluorophore. The plasmid pJS3 contains the gene triA, and thus the E. coli cells can express the melamine deaminase TriA, which catalyzes the cleavage of one of the amine groups. The products of this reaction are ammeline (2-hydroxy-4,6-diamino-s-triazine) and ammonia.
The release of ammonia led to an increase in pH on the tip of the optical fiber, which was detected as an increase in the fluorescence of fluoresceinamine (FIG. 21).
The melamine deaminase biosensor was also responsive to the related amine-containing chemical 2-chloro-4,6-diamino-s-triazine (CAAT) (Table 12 and FIG. 22).

T3 sequence (Q9EYU0 whole entry): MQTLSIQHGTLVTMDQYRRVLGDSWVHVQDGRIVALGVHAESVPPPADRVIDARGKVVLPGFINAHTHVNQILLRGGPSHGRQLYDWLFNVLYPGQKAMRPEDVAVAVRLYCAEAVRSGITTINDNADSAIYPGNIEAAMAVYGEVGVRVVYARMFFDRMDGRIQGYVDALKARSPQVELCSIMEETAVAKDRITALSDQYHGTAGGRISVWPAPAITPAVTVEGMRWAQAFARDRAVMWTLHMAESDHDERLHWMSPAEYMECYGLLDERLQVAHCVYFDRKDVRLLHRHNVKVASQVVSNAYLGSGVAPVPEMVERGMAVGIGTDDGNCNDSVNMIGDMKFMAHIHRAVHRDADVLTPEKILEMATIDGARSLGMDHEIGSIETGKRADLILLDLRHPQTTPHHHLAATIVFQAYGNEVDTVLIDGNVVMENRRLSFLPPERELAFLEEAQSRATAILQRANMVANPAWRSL

As to `BrCCBr` [1,2-dibromoethane], in experiment [1], the “Biosensor sensitivity (ΔV/ppb analyte)” value is reported as 0.29 ΔV/ppb analyte. Moreover, the “decline of biosensor response” value on E. coli pAQN (linB) amounted to 20%. For the same compound, in experiment [2], the “LinB activity (% of 1-chlorobenzene rate)” value is on record as 355%.

Turning to `CCCCCCCl` [1-chlorohexane], in experiment [1], the “Biosensor sensitivity (ΔV/ppb analyte)” value is reported as 0.21 ΔV/ppb analyte. For the same compound, the “LinB activity (% of 1-chlorobenzene rate)” value in experiment [2] is reported as 145%.

Take `Nc1nc(N)nc(Cl)n1` [CAAT, 2-chloro-4,6-diamino-s-triazine]: on melamine deaminase TriA (0.12 mg/L), the “Response (count)” value came out at 150 count and the “Response time” value turned out to be 2 h. For the same compound, on melamine deaminase TriA (1.21 mg/L), the “Response (count)” value was 800 count and the “Response time” value was 10 h.

For the compound `Nc1nc(N)nc(N)n1` [Melamine, 2,4,6-triamino-1,3,5-triazine], on melamine deaminase TriA (0.12 mg/L), the “Response (count)” value was found to be 1000 count and the “Response time” value turned out to be 20 h. Moreover, at melamine deaminase TriA (1.21 mg/L), the “Response (count)” value was determined as 2700 count and the “Response time” value was 16 h.
